What all share (type): functional, Mus musculus
Experiment [1] has as its system L1210. In words: Compound was tested for maximum percentage T/C in L1210 Leukemia assay at 40 mg/kg (no cures out of 6).
Experiment [2] concerns L1210. The experiment in a line: Compound was tested for toxic dose in L1210 Leukemia assay.
For experiment [3], the system named is L1210. The experiment in a line: Compound was tested for active dose in L1210 Leukemia assay; 10-40 mg/kg.
Experiment [4] relates to L1210. The experiment in a line: Compound was tested for maximum percentage T/C in L1210 Leukemia assay at 60 mg/kg (3 cures out of 6).
The test system of experiment [5] is L1210. The experiment in a line: Compound was tested for active dose in L1210 Leukemia assay; 7.5-60 mg/kg.
The subject of experiment [6] is L1210. The experiment in a line: Compound was tested for active dose in L1210 Leukemia assay; 2-8 mg/kg.
Experiment [7] has as its system L1210. The experiment in a line: Compound was tested for maximum percentage T/C in L1210 Leukemia assay at 8 mg/kg (no cures out of 6).

Each structure is given as a SMILES string.

One may read the T/C as the ratio of treated to control.

In the experiment with L1210 [1], `CC[C@@](O)(C(=O)[O-])c1cc2n(c(=O)c1CO)Cc1cc3ccccc3nc1-2.[Na+]` returned a T/C of 178%. The compound also showed a Toxic dose with L1210 [2] of 80 mg/kg. In the experiment on L1210 [3], this compound had an Active dose of 10 mg/kg.
In turn, `CC[C@@]1(O)C(=O)OCc2c1cc1n(c2=O)Cc2cc3ccc(O)cc3nc2-1` (racemic) gave a T/C in the experiment on L1210 [4] of 357%. This compound also came in with an Active dose in the experiment with L1210 [5] of 7.5 mg/kg.
Take `CC[C@@]1(O)C(=O)OCc2c1cc1n(c2=O)Cc2cc3ccccc3nc2-1` [CAMPTOTHECIN]: the Toxic dose in the experiment with L1210 [2] worked out at 16 mg/kg. The Active dose with L1210 [6] stood at 2 mg/kg. The compound further showed a T/C in the experiment with L1210 [7] of 164%.

For the origin of these results see ChEMBL document CHEMBL1123356, “Plant antitumor agents. 22. Isolation of 11-hydroxycamptothecin from Camptotheca acuminata Decne: total synthesis and biological activity” (1986).
